# Measured values reported in ChEMBL document CHEMBL1141467, “Multi-target-directed ligands to combat neurodegenerative diseases” (J Med Chem, 2008).
# T1: Muscarinic acetylcholine receptor M2 (Homo sapiens) (UniProt P08172)
# T1 sequence (whole entry): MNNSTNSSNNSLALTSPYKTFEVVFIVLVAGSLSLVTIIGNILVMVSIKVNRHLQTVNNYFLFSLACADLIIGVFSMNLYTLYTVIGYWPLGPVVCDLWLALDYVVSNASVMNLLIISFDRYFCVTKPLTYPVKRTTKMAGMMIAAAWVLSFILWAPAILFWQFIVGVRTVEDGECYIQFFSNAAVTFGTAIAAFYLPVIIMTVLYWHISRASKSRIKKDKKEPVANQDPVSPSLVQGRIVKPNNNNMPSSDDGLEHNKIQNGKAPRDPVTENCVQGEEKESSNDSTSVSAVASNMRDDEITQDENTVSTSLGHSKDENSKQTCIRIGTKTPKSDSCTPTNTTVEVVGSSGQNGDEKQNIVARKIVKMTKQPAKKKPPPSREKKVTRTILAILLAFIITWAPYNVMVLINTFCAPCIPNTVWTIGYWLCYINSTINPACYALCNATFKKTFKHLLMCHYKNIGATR
# T2: Amine oxidase [flavin-containing] A (Homo sapiens, UniProt P21397)
# T2 sequence (P21397 whole entry): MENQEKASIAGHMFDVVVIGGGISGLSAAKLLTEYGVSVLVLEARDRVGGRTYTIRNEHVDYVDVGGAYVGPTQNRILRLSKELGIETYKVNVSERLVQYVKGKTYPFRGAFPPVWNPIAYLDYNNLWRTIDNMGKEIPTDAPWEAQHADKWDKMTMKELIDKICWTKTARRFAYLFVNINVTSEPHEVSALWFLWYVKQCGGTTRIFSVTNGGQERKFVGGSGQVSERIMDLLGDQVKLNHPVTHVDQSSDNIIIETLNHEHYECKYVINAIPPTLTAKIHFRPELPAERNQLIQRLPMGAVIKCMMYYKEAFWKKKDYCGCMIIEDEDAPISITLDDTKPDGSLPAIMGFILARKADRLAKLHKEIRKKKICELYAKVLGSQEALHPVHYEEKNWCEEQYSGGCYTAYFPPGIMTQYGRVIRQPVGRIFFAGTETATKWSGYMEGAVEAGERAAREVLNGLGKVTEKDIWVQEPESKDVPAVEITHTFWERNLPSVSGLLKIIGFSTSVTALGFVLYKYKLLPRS
# T3: Amine oxidase [flavin-containing] B (Homo sapiens, UniProt P27338)
# T3 sequence (P27338 whole entry): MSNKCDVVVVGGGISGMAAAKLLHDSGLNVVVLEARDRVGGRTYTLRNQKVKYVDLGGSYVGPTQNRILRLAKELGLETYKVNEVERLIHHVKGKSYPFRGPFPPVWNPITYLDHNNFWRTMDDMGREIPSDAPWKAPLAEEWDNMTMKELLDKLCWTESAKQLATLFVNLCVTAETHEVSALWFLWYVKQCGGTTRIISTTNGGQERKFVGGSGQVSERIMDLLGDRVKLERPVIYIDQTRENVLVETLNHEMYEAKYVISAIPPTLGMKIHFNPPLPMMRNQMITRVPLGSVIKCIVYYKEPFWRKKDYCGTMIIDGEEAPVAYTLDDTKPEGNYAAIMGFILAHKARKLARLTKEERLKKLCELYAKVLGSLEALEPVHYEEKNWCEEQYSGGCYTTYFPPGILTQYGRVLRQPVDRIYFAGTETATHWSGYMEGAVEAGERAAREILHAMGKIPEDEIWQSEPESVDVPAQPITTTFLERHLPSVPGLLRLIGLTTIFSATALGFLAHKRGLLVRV
# T4: 5-hydroxytryptamine receptor 3A (Homo sapiens, UniProt P46098)
# T4 sequence (P46098 whole entry): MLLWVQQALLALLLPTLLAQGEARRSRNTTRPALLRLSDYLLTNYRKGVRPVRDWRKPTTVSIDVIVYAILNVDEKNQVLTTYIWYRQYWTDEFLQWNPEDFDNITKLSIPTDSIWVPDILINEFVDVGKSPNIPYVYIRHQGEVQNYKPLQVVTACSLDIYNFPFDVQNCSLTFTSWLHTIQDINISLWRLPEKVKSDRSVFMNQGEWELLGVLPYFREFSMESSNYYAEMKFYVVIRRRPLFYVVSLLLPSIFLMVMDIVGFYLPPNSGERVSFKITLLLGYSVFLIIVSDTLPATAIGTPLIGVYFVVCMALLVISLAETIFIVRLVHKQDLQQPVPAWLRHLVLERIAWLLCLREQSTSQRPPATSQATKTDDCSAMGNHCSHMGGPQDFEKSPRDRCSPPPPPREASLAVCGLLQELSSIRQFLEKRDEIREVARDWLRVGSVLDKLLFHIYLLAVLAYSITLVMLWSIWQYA
# T5: D(4) dopamine receptor (Homo sapiens, UniProt P21917)
# T5 sequence (P21917 whole entry): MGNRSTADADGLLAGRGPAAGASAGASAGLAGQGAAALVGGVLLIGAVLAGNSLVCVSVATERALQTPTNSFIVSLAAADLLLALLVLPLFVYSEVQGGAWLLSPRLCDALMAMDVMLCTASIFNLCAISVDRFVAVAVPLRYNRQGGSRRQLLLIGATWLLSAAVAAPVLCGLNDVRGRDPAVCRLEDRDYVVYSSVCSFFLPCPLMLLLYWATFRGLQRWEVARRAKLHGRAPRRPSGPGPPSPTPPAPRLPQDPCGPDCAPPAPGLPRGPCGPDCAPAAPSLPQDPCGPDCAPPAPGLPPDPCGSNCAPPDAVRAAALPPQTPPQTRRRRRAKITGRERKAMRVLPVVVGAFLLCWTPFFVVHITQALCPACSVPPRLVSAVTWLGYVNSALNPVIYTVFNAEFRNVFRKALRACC
# T6: 5-hydroxytryptamine receptor 1A (Homo sapiens, UniProt P08908)
# T6 sequence (P08908 whole entry): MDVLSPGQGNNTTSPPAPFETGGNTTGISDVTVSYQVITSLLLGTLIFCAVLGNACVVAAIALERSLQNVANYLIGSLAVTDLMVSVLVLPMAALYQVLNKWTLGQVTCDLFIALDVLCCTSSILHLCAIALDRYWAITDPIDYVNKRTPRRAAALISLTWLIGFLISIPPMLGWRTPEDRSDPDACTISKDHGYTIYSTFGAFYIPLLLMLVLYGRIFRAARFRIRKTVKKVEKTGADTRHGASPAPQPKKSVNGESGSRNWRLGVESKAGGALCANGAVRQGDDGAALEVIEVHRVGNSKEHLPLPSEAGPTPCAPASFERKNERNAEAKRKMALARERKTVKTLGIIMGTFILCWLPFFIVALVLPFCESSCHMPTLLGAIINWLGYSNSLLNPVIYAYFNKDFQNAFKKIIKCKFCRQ
# B1: Quinone oxidoreductase (Homo sapiens), Q08257 (protein)
# chain: MATGQKLMRAVRVFEFGGPEVLKLRSDIAVPIPKDHQVLIKVHACGVNPVETYIRSGTYSRKPLLPYTPGSDVAGVIEAVGDNASAFKKGDRVFTSSTISGGYAEYALAADHTVYKLPEKLDFKQGAAIGIPYFTAYRALIHSACVKAGESVLVHGASGGVGLAACQIARAYGLKILGTAGTEEGQKIVLQNGAHEVFNHREVNYIDKIKKYVGEKGIDIIIEMLANVNLSKDLSLLSHGGRVIVVGSRGTIEINPRDTMAKESSIIGVTLFSSTKEEFQQYAAALQAGMEIGWLKPVIGSQYPLEKVAEAHENIIHGSGATGKMILLL
# Experiments:
# [1] = molecular target: T1, Muscarinic acetylcholine receptor M2 (Homo sapiens); test: Antagonist activity at muscarinic M2 receptor; format: functional
# [2] = molecular target: Sodium-dependent serotonin transporter (Homo sapiens, UniProt P31645)
# Sodium-dependent serotonin transporter, sequence (P31645 whole entry): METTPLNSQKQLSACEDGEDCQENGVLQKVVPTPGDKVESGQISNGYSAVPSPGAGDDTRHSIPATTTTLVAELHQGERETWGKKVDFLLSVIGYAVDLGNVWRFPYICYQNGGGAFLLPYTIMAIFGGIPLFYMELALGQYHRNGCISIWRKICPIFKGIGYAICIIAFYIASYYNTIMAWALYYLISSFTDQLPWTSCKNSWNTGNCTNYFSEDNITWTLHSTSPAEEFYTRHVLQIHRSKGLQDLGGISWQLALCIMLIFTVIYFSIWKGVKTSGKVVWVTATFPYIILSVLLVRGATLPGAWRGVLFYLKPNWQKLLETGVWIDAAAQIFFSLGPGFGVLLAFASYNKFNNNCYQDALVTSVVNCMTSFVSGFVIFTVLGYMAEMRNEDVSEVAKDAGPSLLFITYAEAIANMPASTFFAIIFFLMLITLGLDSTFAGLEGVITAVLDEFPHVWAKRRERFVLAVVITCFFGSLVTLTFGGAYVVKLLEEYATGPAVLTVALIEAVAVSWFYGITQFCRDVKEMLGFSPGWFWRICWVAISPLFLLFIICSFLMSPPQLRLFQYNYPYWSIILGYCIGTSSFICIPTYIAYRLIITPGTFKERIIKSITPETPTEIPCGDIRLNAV
# Acetylcholinesterase [3] = molecular target: T7, Acetylcholinesterase (Homo sapiens, UniProt P22303)
# T7 sequence (P22303 whole entry): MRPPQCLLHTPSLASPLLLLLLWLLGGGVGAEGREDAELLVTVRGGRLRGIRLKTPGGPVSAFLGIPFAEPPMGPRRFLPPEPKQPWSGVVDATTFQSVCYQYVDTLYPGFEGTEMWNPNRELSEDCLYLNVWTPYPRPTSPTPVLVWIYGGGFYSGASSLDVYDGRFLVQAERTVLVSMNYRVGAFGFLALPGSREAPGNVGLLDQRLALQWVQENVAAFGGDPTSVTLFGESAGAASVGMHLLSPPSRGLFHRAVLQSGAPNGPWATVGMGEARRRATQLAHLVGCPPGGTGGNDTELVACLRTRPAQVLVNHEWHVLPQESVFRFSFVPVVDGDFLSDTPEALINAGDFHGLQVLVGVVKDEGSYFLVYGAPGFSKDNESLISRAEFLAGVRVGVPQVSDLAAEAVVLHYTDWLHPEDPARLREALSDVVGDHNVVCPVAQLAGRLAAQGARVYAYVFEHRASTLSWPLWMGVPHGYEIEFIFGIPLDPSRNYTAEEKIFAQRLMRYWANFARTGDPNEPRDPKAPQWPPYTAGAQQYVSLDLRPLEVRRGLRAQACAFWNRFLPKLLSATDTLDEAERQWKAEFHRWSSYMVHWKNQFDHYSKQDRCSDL
# Description: Inhibition of human AchE-induced amyloid beta aggregation
# Acetylcholinesterase [4] = molecular target: T7, Acetylcholinesterase; remark: listed apart in the source
# [5] = Protection against ROS induced by oxidative stress at 10 uM in neuronal cells; format: functional
# [6] = Inhibition of metal-induced amyloid beta aggregation at 50 uM
# Homo sapiens = organism: Homo sapiens; test: Selectivity for human Ach over human BuCh
# [7] = Inhibition of amyloid beta aggregation at 100 uM; design: scale not given: the % may be the effect or the level left
# [8] = Inhibition of zinc-induced amyloid beta aggregation at 25 uM
# [9] = molecular target: T2, Amine oxidase [flavin-containing] A
# [10] = molecular target: T3, Amine oxidase [flavin-containing] B
# [11] = molecular target: T4, 5-hydroxytryptamine receptor 3A
# Description: Binding affinity to 5HT3 receptor
# D(3) dopamine receptor = D(3) dopamine receptor (Homo sapiens, UniProt P35462); test: Binding affinity to human dopaminergic D3 receptor
# D(3) dopamine receptor, sequence (P35462 whole entry): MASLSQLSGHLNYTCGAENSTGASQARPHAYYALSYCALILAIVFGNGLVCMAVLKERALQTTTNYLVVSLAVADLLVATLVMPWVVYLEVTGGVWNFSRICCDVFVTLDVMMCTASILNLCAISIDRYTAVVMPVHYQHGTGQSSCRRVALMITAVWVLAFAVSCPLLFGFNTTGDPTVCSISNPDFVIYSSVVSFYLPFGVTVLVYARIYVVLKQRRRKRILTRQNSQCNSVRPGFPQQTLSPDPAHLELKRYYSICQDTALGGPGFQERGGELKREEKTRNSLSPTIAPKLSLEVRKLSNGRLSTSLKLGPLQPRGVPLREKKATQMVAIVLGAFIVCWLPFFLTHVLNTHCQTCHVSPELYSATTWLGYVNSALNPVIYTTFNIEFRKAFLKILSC
# D(4) dopamine receptor = molecular target: T5, D(4) dopamine receptor; test: Binding affinity to human dopaminergic D4 receptor
# [12] = molecular target: T6, 5-hydroxytryptamine receptor 1A; test: Binding affinity to human 5HT1A receptor
# D(2) dopamine receptor = D(2) dopamine receptor (Homo sapiens, UniProt P14416); test: Binding affinity to human dopaminergic D2 receptor
# D(2) dopamine receptor, sequence (P14416 whole entry): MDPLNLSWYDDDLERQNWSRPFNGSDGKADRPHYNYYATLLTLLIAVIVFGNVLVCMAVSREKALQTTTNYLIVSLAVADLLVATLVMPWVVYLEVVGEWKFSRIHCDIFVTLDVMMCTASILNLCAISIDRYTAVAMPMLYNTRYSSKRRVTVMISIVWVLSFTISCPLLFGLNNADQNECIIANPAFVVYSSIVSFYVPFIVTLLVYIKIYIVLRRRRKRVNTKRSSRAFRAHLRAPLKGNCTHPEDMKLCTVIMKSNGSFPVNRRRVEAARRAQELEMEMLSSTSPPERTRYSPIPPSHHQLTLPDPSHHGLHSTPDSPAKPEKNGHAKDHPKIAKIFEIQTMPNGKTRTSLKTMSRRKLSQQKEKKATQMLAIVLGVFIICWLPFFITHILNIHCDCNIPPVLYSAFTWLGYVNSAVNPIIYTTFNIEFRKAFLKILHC
# Beta-secretase 1 = Beta-secretase 1 (Homo sapiens, UniProt P56817); test: Inhibition of BACE1
# Beta-secretase 1, sequence (P56817 whole entry): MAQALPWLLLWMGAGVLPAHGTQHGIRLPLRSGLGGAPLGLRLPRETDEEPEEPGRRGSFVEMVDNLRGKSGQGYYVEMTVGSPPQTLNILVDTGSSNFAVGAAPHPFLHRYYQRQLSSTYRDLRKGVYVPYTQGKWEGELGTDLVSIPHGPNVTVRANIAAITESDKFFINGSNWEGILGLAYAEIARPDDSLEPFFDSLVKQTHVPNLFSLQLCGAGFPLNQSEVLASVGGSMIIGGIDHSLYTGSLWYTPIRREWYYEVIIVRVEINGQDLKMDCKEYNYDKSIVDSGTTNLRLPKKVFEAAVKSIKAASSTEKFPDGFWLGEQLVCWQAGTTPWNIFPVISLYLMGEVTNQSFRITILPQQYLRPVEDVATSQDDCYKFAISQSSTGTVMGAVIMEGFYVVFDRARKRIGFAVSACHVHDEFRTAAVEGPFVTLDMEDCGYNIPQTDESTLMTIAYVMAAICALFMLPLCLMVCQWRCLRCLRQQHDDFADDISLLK
# Acetylcholinesterase [13] = molecular target: T7, Acetylcholinesterase; test: Inhibition of human AchE induced amyloid beta42 aggregation
# [14] = substrate: CCN(CCCCCCNC1=CC(=O)C(NCCCCCCN(CC)Cc2ccccc2OC)=CC1=O)Cc1ccccc1OC; test: Binding affinity to NQQ1
molecule,measurement,setting,value
COc1ccccc1CN(C)CCCCCC(=O)N(C)CCCCCCCCN(C)C(=O)CCCCCN(C)Cc1ccccc1OC,Kb,[1],410 nM
CCN(C)C(=O)Oc1cccc([C@H](C)N(C)C)c1 [RIVASTIGMINE],IC50,[2],> 1000 nM
CCN(CCCCCC(=O)N1CCC(C2CCN(C(=O)CCCCCN(CC)Cc3ccccc3OC)CC2)CC1)Cc1ccccc1OC,Kb,[1],660 nM
O=C(CCCCC1CCSS1)NCCCNc1c2c(nc3cc(Cl)ccc13)CCCC2 (stereo not given) [LIPOCRINE],IC50,Acetylcholinesterase [3],45000 nM
same,IC50,Acetylcholinesterase [4],0.25 nM
same,Activity,[5],62%
CN(CCN(C)Cc1cc(O[C@@H]2O[C@H](CO)[C@@H](O)[C@H](O)[C@H]2O)cc(C(C)(C)C)c1O)Cc1cc(O[C@H]2O[C@@H](CO)[C@H](O)[C@@H](O)[C@@H]2O)cc(C(C)(C)C)c1O,IC50,[6],> 50%
Cc1c(O[C@@H]2O[C@H](CO)[C@@H](O)[C@H](O)[C@H]2O)c(=O)ccn1C,Activity,[6],> 50%
O=C(CCCCCCNc1c2c(nc3cc(Cl)cc(Cl)c13)CCCC2)NCCc1c[nH]c2ccccc12,Selectivity ratio,Homo sapiens,1000
O=C(CCc1c[nH]c2ccccc12)NCCCCCCCNc1c2c(nc3cc(Cl)ccc13)CCCC2,IC50,Acetylcholinesterase [3],9000 nM
same,Activity,[7],65%
same,IC50,Acetylcholinesterase [4],0.06 nM
O=C(O)CN(CCN(CC(=O)O)CC(=O)Nc1ccc(-c2nc3ccccc3s2)cc1)CCN(CC(=O)O)CC(=O)Nc1ccc(-c2nc3ccccc3s2)cc1,IC50,[8],> 50%
C#CCN(C)Cc1ccnc2c(O)cccc12,IC50,[9],37 nM
same,IC50,[10],57 nM
COc1ccccc1CNCCCNCCCNCCC[n+]1c(-c2ccccc2)c2cc(N)ccc2c2ccc(N)cc21,IC50,Acetylcholinesterase [4],952 nM
Clc1cccc(Cl)c1CO/N=C/c1cc[n+](CCC[n+]2ccc(/C=N/OCc3c(Cl)cccc3Cl)cc2)cc1,Activity,[7],55%
same,IC50,Acetylcholinesterase [4],6000 nM
C#CCNCc1ccnc2c(O)cccc12,IC50,[9],2390 nM
same,IC50,[10],4240 nM
Cc1c(N2CCN(C)CC2)nc2ccccc2c1C(=O)NCCCCCCCNc1c2c(nc3ccccc13)CCCC2,Ki,[11],5.6 nM
O=C(CCc1c[nH]c2ccccc12)NCCCCCCNc1c2c(nc3cc(Cl)ccc13)CCCC2,IC50,[7],2000 nM
same,IC50,Acetylcholinesterase [4],0.02 nM
C#CCN[C@@H]1CCc2ccc(OC(=O)N(C)CC)cc21 [LADOSTIGIL],IC50,Acetylcholinesterase [4],52400 nM
same,IC50,[9],85000 nM
same,IC50,[10],120000 nM
C#CCN[C@@H]1CCc2cc(Cl)c(OC(=O)N(C)CCC)cc21,IC50,Acetylcholinesterase [4],43900 nM
same,IC50,[9],375000 nM
same,IC50,[10],32000 nM
Fc1ccc(-c2cncc(CNC[C@H]3CCc4ccccc4O3)c2)cc1 [SARIZOTAN],IC50,D(3) dopamine receptor,< 6 nM
same,IC50,D(4) dopamine receptor,< 6 nM
same,IC50,[12],< 6 nM
same,IC50,[11],< 6 nM
same,IC50,D(2) dopamine receptor,< 6 nM
c1ccc2c(NCCc3ccc(OCCCN4CCCCC4)cc3)c3c(nc2c1)CCCC3,IC50,Acetylcholinesterase [4],2.6 nM
same,Ki,[11],0.33 nM
Clc1cccc(Cl)c1CO/N=C/c1cc[n+](CCCc2ccccc2)cc1,Activity,[7],60%
same,IC50,Acetylcholinesterase [4],180 nM
C#CCN1CCN(Cc2ccnc3c(O)cccc23)CC1,IC50,[9],300000 nM
same,IC50,[10],64200 nM
C#CCN(C)C(C)Cc1cccc(OC(=O)N(C)CCCCCC)c1 (stereo not given),IC50,[9],20000 nM
same,IC50,[10],1500 nM
CCN(CCCCCCNC1=CC(=O)C(NCCCCCCN(CC)Cc2ccccc2OC)=CC1=O)Cc1ccccc1OC [MEMOQUIN],IC50,Beta-secretase 1,108 nM
same,IC50,Acetylcholinesterase [13],5930 nM
B1,Km,[14],12.7 µM
